Here are results for eleven compounds from patent publication US8772478B2, “Benzenesulfonamide compounds, method for synthesizing same, and use thereof in medicine as well as in cosmetics” (Galderma Research & Development, priority 2009, dated 2014).

Experiment [1] deals with TACE enzyme (Homo sapiens, UniProt P78536). Briefly: Enzymatic assay for TACE inhibition. It is filed as biochemical. As to conditions: for % TACE inhibition at 10 μM: 10 μM compound.
Description: (§1) A serial 3-fold dilution over 10 points is carried out so as to have a concentration range of from 10 μM to 0.5 nM final concentration. […] The substrate is used at 40 μM. […] The IC50 is determined using mathematical processing software (XLfit).
The test system of experiment [2] is TACE enzyme. As to conditions: from WO 00/44709, table 10, example 61; cited from earlier work.
Another experiment addresses MMP9 (Homo sapiens (Human), UniProt P14780). Briefly: Selectivity assay MMP9. It is filed as biochemical.
In a further experiment the target is ADAM9 (Homo sapiens (Human), UniProt Q13443). Description: Selectivity assay ADAM9. The experiment is classed as biochemical.
Chain of ADAM9 (Q13443 29-819, species assumed): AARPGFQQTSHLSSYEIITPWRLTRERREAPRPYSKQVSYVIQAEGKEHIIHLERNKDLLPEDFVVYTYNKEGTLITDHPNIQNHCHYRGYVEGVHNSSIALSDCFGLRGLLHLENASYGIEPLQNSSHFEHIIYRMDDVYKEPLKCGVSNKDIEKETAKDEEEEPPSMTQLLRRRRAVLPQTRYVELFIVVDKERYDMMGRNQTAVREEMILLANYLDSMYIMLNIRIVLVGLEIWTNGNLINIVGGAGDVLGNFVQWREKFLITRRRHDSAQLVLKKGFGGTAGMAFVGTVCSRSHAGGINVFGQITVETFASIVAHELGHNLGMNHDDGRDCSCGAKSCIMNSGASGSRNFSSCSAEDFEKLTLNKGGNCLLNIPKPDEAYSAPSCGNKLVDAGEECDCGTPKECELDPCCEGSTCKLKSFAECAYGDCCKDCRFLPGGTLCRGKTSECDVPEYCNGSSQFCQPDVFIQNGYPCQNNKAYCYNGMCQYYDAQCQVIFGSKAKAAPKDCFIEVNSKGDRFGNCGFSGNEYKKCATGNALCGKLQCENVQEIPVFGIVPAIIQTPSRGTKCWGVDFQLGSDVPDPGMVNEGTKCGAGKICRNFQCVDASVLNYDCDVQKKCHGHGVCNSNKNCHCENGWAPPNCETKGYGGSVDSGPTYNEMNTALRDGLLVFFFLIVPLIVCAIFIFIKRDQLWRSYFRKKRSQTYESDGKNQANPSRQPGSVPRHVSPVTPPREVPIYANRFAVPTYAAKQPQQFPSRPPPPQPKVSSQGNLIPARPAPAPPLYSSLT
The target of a further experiment is MMP3 (Homo sapiens (Human), UniProt P08254). Description: Selectivity assay MMP3. It is filed as biochemical.
Chain of MMP3 (P08254 100-477, species assumed): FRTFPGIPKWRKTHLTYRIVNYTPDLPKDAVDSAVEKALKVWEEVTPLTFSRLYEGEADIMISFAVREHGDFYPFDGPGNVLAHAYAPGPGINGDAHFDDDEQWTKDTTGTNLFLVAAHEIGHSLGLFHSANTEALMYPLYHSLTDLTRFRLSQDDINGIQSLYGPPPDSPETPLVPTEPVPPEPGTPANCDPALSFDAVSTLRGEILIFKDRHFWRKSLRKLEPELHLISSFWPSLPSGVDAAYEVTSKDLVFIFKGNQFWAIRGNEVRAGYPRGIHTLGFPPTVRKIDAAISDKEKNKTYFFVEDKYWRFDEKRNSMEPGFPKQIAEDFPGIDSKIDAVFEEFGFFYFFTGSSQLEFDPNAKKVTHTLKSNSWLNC
Another experiment addresses ADAM10 (Homo sapiens (Human), UniProt O14672). Briefly: Selectivity assay ADAM10. The experiment is classed as biochemical.
For a further experiment, the target named is MMP1 (Homo sapiens (Human), UniProt P03956). Briefly: Selectivity assay MMP1. It is filed as biochemical.
Chain of MMP1 (P03956 100-469, species assumed): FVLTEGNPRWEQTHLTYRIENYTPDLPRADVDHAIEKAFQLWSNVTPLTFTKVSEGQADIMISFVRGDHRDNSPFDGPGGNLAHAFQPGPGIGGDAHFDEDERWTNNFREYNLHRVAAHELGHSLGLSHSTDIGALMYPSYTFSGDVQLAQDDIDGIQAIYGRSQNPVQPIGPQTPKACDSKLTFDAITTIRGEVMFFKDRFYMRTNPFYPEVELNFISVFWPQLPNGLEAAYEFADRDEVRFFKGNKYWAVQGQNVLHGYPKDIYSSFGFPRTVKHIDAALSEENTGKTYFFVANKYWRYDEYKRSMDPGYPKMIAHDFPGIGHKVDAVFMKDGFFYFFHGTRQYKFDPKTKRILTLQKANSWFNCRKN
[3] abbreviates: fluorescent substrate 40 μM, pH 7.4.

The term pIC50 denotes the negative decadic logarithm of the IC50, by convention in mol/L. The low end stands for a high IC50, the high end for a low IC50.

pIC50: −log10 of the molar value.

Chain of TACE enzyme (Homo sapiens, UniProt P78536) (P78536 215-824 limits assumed): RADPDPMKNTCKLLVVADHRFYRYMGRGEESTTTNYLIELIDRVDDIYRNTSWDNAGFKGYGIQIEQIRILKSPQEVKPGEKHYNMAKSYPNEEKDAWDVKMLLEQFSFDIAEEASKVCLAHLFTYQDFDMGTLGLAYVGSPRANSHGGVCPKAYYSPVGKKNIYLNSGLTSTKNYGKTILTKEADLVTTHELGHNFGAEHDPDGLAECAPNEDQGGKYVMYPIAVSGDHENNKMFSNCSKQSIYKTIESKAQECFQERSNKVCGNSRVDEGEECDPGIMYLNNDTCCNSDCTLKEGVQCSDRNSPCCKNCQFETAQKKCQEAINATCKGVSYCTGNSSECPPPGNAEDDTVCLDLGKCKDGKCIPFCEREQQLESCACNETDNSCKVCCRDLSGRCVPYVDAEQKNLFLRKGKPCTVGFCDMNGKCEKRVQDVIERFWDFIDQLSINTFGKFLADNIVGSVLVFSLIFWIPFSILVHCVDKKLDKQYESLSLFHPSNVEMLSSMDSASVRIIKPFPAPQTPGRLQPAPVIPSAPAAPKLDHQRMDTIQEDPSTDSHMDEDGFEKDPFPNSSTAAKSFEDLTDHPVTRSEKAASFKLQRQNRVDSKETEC
Chain of ADAM10 (O14672 214-748, species assumed): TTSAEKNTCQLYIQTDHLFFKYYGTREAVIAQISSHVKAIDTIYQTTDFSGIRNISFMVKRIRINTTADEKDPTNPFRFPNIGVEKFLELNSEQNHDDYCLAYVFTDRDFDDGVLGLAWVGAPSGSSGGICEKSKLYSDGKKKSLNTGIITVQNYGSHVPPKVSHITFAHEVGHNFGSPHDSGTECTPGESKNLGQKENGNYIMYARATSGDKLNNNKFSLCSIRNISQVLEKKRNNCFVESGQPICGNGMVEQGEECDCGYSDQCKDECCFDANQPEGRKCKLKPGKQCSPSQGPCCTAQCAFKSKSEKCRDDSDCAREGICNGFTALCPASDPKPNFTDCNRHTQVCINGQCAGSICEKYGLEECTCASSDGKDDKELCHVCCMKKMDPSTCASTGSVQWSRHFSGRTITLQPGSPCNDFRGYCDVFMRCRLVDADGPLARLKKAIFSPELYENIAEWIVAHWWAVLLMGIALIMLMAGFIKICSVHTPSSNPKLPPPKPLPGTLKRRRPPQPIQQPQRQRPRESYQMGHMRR
Chain of MMP9 (P14780 94-707, species assumed): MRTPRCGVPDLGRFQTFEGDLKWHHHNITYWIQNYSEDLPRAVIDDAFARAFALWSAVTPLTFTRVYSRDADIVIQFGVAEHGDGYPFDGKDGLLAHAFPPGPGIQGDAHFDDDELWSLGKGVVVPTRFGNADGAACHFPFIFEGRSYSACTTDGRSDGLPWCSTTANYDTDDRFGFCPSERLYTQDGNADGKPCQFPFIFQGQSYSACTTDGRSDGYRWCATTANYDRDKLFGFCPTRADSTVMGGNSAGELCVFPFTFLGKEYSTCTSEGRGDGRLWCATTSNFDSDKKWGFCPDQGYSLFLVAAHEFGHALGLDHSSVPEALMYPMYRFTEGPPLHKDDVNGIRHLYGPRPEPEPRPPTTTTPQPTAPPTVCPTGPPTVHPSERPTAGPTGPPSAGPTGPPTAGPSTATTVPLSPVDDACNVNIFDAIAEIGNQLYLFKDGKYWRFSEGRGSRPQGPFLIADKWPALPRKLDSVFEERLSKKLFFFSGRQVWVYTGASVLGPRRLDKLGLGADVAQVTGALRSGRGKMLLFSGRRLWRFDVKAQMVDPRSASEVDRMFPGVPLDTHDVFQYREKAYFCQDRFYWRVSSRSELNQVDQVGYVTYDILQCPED
Description for ADAM10: as §1
(§2) The enzymes are purchased from Calbiochem.
Description for ADAM9: as §1, §2
Description for MMP1: as §1, §2
Description for MMP9: as §1, §2

Turning to `O=C(NO)[C@H](CNS(=O)(=O)c1ccc(OCc2ccc3ccccc3c2)cc1)N1CCCCC1` [Example 5, (S)—N-Hydroxy-3-[4-(naphthalen-2-ylmethoxy)benzenesulfonylamino]-2-piperidin-1-ylpropionamide], the “% TACE inhibition at 10 μM” value on TACE enzyme [1] stood at 97%. For the same compound, the pIC50 at TACE enzyme [1] (setting [3]) was 6.60.

With `O=C(NO)[C@H](CNS(=O)(=O)c1ccc(OCc2ccccc2)cc1)N1CCOCC1` [Example 7, (S)-3-(4-benzyloxybenzenesulfonylamino)-N-hydroxy-2-morpholin-4-ylpropionamide], on TACE enzyme [1], the “% TACE inhibition at 10 μM” value was found to be 98%. The same compound had a pIC50 against TACE enzyme [1] (setting [3]) of 6.83.

For the compound `O=C(NO)[C@H](CNS(=O)(=O)c1ccc(OCc2ccc(F)cc2)cc1)N1CCCCC1` [Example 3, (S)-3-[4-(4-fluorobenzyloxy)benzenesulfonylamino]-N-hydroxy-2-piperidin-1-ylpropionamide], the “% TACE inhibition at 10 μM” value on TACE enzyme [1] is reported as 97%. The compound also gave a pIC50 on TACE enzyme [1] (setting [3]) of 6.74.

`Cc1cc(COc2ccc(S(=O)(=O)NC[C@@H](C(=O)NO)N3CCCCC3)cc2)c2ccccc2n1.Cl.Cl` [Example 15, (S)—N-hydroxy-3-[4-(2-methylquinolin-4-ylmethoxy)benzenesulfonylamino]-2-piperidin-1-ylpropionamide dihydrochloride]: the “% TACE inhibition at 10 μM” value on TACE enzyme [1] is on record as 98%.

For the compound `O=C(NO)[C@H](CNS(=O)(=O)c1ccc(OCc2ccc(Cl)c(Cl)c2)cc1)N1CCCCC1` [Example 6, (S)-3-[4-(3,4-dichlorobenzyloxy)benzenesulfonylamino]-N-hydroxy-2-piperidin-1-ylpropionamide], the “% TACE inhibition at 10 μM” value on TACE enzyme [1] turned out to be 97%. For the same compound, on TACE enzyme [1] (setting [3]), the pIC50 was 6.48.

On to `CC1(C)SCCN(S(=O)(=O)c2ccc(OCC#CCO)cc2)[C@H]1C(=O)NO` [Apratastat], for which the “selectivity for the TACE enzyme compared with certain MMPs” value in the experiment with TACE enzyme [2] was “not selective”.

As for `Cc1cc(COc2ccc(S(=O)(=O)NC[C@@H](C(=O)NO)N3CCCCC3)cc2)c2ccccc2n1` [Example 8, (S)—N-hydroxy-3-[4-(2-methylquinolin-4-ylmethoxy)benzenesulfonylamino]-2-piperidin-1-ylpropionamide], the pIC50 is < 5.00 against MMP9; < 5.00 on ADAM9; 5.35 against MMP3; < 5.00 at ADAM10; 5.52 on MMP1. For the same compound, the “% TACE inhibition at 10 μM” value at TACE enzyme [1] came to 99%.

Take `O=C(NO)[C@H](CNS(=O)(=O)c1ccc(OCc2ccccc2)cc1)N1CCCCC1` [Example 1, (S)-3-(4-benzyloxybenzenesulfonylamino)-N-hydroxy-2-piperidin-1-ylpropionamide]: on TACE enzyme [1], the “% TACE inhibition at 10 μM” value worked out at 98%. Further, the negative-log IC50 (pIC50) against TACE enzyme [1] (setting [3]) was 6.74.

On to `Cc1cc(COc2ccc(S(=O)(=O)NC[C@@H](C(=O)NO)N3CCOCC3)cc2)c2ccccc2n1` [Example 14, (S)—N-hydroxy-3-[4-(2-methylquinolin-4-ylmethoxy)benzenesulfonylamino]-2-morpholin-4-ylpropionamide], for which the pIC50 was 5.52 against MMP3, 7.62 against TACE enzyme [1] (as listed in selectivity assay table) and 7.42 against TACE enzyme [1] (setting [3]). In addition, at TACE enzyme [1], the “% TACE inhibition at 10 μM” value was 91%.

In the case of `O=C(NO)[C@H](CNS(=O)(=O)c1ccc(OCc2cc(Cl)cc(Cl)c2)cc1)N1CCCCC1` [Example 9, (S)-3-[4-(3,5-dichlorobenzyloxy)benzenesulfonylamino]-N-hydroxy-2-piperidin-1-ylpropionamide], the “% TACE inhibition at 10 μM” value at TACE enzyme [1] was 99%. At TACE enzyme [1] (setting [3]), this compound had a pIC50 of 6.33.

Consider `O=C(NO)[C@H](CNS(=O)(=O)c1ccc(OCc2ccccc2)cc1)N1CCCC1` [Example 2, (S)-3-(4-benzyloxybenzenesulfonylamino)-N-hydroxy-2-pyrrolidin-1-ylpropionamide], for which, at TACE enzyme [1], the “% TACE inhibition at 10 μM” value was determined as 95%. In addition, the pIC50 against TACE enzyme [1] (setting [3]) was 6.53.
